The target in one experiment is T1, Hexokinase HKDC1 (Homo sapiens, UniProt Q2TB90).
T1 sequence (Q2TB90 whole entry): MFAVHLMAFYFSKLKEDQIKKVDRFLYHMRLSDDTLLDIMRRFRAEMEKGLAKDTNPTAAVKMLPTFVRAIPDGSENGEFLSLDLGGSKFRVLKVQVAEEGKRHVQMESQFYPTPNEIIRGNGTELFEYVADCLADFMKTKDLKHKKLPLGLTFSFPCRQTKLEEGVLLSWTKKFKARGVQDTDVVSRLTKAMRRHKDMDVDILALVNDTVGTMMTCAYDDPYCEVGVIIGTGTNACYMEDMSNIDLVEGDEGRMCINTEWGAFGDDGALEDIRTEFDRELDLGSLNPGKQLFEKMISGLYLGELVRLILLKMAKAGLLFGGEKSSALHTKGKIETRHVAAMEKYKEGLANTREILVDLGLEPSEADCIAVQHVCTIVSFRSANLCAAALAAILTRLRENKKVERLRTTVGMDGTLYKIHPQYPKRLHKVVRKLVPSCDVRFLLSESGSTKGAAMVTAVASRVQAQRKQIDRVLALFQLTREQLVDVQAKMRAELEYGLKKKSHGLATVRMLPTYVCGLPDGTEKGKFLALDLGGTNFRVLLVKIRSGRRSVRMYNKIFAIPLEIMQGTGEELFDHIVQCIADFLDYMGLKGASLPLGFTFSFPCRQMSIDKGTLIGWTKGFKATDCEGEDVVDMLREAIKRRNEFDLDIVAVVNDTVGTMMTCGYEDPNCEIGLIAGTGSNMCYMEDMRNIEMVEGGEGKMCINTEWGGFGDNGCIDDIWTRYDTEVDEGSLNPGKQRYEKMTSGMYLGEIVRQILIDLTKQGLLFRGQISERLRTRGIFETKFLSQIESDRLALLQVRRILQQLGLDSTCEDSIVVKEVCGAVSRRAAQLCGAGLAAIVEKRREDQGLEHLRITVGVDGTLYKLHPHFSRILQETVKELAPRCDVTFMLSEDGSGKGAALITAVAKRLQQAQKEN
Kind of experiment: analog inhibition of human HKDC1 activity – biochemical, set 2, SAR follow-up (AID 588355). The class given is functional.

In another experiment the target is Hexokinase-1 (Homo sapiens, UniProt P19367). Kind of experiment: hexokinase 1 activity inhibitors, potency – biochemical, set 2, resazurin fluorescence coupled readout, selectivity assay for HKDC1 inhibitor project, SAR follow-up (AID 588356). Type of experiment: functional.
Sequence of Hexokinase-1 (P19367 whole entry): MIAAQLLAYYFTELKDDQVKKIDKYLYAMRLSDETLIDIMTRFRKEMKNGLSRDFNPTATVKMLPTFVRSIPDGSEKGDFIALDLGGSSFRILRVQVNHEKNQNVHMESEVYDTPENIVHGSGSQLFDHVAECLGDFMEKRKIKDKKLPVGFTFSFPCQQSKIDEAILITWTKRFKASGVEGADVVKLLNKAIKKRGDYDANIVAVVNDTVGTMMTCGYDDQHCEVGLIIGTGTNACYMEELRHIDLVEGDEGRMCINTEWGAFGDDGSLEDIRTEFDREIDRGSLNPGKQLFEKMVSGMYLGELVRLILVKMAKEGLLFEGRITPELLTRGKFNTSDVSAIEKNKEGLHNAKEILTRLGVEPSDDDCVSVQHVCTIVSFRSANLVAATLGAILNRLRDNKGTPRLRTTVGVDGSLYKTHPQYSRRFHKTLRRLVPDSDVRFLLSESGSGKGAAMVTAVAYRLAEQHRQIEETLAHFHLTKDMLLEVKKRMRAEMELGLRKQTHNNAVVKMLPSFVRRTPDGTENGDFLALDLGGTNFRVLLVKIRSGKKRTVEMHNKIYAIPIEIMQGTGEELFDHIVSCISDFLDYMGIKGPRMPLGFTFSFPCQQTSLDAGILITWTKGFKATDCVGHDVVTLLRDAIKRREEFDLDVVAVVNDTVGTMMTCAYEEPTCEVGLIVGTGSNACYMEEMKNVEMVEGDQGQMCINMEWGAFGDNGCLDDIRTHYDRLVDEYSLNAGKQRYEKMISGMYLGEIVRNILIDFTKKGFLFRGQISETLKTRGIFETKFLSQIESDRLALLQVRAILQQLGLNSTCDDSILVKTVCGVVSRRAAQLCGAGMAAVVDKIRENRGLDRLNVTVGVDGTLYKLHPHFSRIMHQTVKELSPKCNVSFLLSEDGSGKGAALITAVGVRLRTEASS
The target of the next experiment is Cysteine protease ATG4B (Homo sapiens, UniProt Q9Y4P1). Type of experiment: functional.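 Further: Fluorescence-based dose-response confirmation assay measuring inhibition of ATG4B activity.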
Sequence of Cysteine protease ATG4B (Q9Y4P1 whole entry): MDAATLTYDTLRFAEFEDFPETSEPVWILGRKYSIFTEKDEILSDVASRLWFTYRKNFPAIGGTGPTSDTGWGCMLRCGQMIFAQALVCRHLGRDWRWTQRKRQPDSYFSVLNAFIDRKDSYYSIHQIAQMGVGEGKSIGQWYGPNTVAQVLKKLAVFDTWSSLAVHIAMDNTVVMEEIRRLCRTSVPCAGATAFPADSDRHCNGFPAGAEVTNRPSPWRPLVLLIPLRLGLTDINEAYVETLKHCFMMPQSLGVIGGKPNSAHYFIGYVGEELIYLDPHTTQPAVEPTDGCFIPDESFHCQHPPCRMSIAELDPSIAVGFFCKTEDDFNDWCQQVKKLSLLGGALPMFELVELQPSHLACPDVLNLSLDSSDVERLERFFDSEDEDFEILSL
For the next experiment, the target named is Phospholipase A2 (Homo sapiens, UniProt P04054). The class given is functional.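 Further: confirmatory dose-response counterscreen on phospholipase A2, testing hits that came from an ultra-high-throughput screen for ATG4B inhibitors.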
Sequence of Phospholipase A2 (P04054 whole entry): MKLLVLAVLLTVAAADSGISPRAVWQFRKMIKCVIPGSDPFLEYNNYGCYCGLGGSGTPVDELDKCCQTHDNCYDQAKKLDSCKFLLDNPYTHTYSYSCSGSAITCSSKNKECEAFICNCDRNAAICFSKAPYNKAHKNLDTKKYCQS
The target of experiment [1] is T2, Fatty acid synthase (Homo sapiens, UniProt P49327). Kind of experiment: inhibition of human FAS-TE enzyme activity – biochemical, kinetic fluorescence intensity, dose response (AID 624326).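 Further: rate of fluorescence rise from hydrolysis of a fluorogenic O-methyl fluorescein ester substrate.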 The class given is functional.
T2 sequence (P49327 whole entry): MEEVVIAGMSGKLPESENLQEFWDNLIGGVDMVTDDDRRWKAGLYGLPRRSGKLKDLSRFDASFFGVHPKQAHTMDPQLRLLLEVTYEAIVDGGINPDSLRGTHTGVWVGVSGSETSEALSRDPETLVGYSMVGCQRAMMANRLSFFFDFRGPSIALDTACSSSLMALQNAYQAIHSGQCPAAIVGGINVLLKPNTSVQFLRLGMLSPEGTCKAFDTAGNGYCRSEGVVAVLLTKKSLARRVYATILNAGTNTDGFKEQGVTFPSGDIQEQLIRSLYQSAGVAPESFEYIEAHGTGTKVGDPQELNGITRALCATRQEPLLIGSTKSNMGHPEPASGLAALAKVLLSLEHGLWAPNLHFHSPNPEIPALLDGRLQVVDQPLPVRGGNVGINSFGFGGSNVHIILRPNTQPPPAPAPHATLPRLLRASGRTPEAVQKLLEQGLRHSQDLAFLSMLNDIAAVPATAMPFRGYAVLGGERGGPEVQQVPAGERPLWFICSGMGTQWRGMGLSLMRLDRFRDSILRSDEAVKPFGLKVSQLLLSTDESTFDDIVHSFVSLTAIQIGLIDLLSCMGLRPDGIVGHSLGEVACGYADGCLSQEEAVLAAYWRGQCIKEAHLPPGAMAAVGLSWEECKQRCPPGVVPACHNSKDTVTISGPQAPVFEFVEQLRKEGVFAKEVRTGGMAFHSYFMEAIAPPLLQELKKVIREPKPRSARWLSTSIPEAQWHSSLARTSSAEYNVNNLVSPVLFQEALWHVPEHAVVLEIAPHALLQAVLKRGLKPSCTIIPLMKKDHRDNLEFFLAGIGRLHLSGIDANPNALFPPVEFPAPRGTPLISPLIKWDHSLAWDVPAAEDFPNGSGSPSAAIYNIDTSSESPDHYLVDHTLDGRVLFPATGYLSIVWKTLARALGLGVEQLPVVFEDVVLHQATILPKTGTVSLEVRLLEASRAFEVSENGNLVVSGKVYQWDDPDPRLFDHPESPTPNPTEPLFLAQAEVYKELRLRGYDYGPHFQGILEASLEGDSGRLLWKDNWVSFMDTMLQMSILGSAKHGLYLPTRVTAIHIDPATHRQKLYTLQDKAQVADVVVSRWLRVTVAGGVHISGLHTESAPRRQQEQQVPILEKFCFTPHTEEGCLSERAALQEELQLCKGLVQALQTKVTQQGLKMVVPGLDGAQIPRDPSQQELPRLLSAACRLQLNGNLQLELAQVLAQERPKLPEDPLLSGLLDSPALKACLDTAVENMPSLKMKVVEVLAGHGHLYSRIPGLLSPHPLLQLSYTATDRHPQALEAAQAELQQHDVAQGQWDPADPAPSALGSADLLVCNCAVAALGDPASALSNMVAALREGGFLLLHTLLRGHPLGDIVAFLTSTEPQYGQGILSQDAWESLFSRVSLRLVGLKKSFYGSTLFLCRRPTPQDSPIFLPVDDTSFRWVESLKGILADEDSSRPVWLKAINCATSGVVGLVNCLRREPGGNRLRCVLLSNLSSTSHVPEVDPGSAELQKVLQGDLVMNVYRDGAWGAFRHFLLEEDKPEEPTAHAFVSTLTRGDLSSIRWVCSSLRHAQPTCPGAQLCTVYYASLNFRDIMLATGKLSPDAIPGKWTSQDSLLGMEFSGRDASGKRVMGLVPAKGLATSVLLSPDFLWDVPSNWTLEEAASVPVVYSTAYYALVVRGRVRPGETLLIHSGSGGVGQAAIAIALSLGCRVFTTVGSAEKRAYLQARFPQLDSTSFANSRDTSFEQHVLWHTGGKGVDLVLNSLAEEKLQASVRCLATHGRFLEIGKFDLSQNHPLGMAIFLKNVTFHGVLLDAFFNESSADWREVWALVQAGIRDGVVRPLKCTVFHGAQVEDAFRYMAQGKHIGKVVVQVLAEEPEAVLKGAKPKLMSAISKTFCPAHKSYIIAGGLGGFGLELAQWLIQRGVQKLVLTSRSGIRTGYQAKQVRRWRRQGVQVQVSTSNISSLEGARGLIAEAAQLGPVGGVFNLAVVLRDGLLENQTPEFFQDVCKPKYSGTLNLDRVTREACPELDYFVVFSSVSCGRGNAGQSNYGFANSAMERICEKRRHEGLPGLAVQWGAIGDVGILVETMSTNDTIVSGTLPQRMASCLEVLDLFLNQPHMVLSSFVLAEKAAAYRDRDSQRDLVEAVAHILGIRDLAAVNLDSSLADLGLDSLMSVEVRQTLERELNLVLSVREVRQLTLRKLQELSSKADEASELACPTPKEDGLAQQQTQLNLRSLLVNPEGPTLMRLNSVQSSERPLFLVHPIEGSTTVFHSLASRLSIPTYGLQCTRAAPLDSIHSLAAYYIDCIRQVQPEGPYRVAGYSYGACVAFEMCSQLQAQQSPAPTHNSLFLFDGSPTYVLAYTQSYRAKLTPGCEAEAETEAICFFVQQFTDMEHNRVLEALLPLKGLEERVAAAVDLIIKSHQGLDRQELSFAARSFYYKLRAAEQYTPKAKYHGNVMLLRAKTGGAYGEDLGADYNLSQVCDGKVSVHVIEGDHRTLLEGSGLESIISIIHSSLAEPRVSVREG
A short description of experiment [2]: reduced cellular PGC1a acetyl-lysine signal – cell-based, cherry-picked samples, dose response (AID 720514).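 Further: potency may reflect raised or lowered acetylation signal.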 Type of experiment: functional.
Experiment [3] has as its target Beta-2 adrenergic receptor (Homo sapiens, UniProt P07550). Kind of experiment: ADRB2 activation measured by internalization – cell-based, FAP fluorogen, flow cytometry, cherry pick 1, dose response (AID 588763). The class given is functional. For orientation: A flow cytometer gives signals particle by particle.
A short description of experiment [4]: loss of viability in HepG2 cells – cell-based, CellTiter-Glo, cherry-picked, cytotoxicity control for Shn3 inhibitor project, dose response (AID 624134). The class given is functional. Background: In ATP-based viability assays light output follows the ATP content of the culture.
The nature of experiment [5]: non-specific 3'UTR reporter inhibition in Clone20-Shn3RL – cell-based, Renilla luciferase, cherry-picked, counter-screen for Shn3 inhibitor project, dose response (AID 624133). The class given is functional.
Experiment [6] can be described thus: reduction of Shn3 3'UTR-driven luciferase in osteoblasts – cell-based, Clone20 osteoblasts, firefly luciferase, cherry-picked, dose response (AID 624132).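 Further: firefly luciferase luminescence from reporter carrying the Shn3 3'UTR in osteoblasts.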 Type of experiment: functional.
In experiment [7] the target is T2, Fatty acid synthase. Kind of experiment: inhibition of human FAS-TE enzyme activity – biochemical, endpoint fluorescence intensity, uHTS hits, dose response (AID 624327).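 Further: fluorescence from hydrolysis of an O-methyl fluorescein acyl ester substrate by the enzyme.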 The class given is functional.
The target in experiment [8] is Heat shock protein HSP 90-alpha (Homo sapiens, UniProt P07900). Type of experiment: functional, organism-based.
For a further experiment, the target named is Beta Lactamase (Pseudomonas aeruginosa, UniProt Q932Y6). Kind of experiment: BLA reporter interference, concentration series – BLA reporter cells, FRET fluorescence, artefact control for TLR9-MyD88 binding inhibitor project, dose response (AID 588341).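 Further: cell based assay in CHO-K1 cells stably expressing beta-lactamase.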 Type of experiment: cell-based.
Sequence of Beta Lactamase (Q932Y6 whole entry, the tested form may be a part): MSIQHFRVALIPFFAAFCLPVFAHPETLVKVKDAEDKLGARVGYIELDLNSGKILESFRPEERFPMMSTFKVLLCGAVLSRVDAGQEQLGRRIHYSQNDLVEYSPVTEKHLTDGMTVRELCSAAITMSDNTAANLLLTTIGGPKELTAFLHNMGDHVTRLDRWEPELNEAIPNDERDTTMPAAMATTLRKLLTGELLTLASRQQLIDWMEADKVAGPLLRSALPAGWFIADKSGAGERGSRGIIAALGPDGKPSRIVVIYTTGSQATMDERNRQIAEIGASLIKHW
The subject of the next experiment is CHO. Kind of experiment: CHO cell viability loss, potency – luminescence, cytotoxicity control for TLR9-MyD88 binding inhibitor project, dose response (AID 588339).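 Further: CHO cells stably coexpressing TLR9 and MyD88 fusions from primary screen; compound exposure lasted 48 hours before viability readout.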 The class given is functional, cell-based, hamster. Conditions: Cricetulus griseus.
Another experiment relates to Escherichia coli. The experiment is described as follows: microbe, parasite or virus in culture.
In another experiment the test system is H9c2. Kind of experiment: cells. The class given is functional, cell-based. Conditions: Rattus norvegicus, H9c2, Myocardium.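 Further: confirmatory concentration-response retest of ultra-high-throughput screening hits for modulation of myocardial damage; cell death induced by hydrogen peroxide oxidative stress; compound pretreatment for 60 min then peroxide exposure for 2 h; potency is for protecting the cells against peroxide damage rather than for killing them.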
The target in experiment [9] is T3, High affinity choline transporter 1 (Homo sapiens, UniProt Q9GZV3).
T3 sequence (Q9GZV3 whole entry): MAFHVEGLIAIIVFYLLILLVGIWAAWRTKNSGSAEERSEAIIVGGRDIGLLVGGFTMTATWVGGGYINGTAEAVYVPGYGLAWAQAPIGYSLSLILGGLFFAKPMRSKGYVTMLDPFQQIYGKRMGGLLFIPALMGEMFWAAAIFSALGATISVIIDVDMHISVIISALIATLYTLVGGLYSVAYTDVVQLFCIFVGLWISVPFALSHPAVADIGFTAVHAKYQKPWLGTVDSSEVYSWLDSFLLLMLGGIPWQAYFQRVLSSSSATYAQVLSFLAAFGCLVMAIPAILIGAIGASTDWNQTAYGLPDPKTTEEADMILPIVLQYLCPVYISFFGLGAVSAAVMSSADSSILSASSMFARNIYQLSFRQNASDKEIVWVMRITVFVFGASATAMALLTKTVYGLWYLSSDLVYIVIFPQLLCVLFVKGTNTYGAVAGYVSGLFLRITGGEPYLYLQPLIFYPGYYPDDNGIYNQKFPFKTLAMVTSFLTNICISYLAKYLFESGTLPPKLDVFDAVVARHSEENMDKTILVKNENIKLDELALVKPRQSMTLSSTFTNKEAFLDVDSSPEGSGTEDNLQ
Kind of experiment: human choline transporter blockers, potency – cell-based, 5-point CRC, membrane potential dye, dose response (AID 504840). Type of experiment: functional.

Experiment [10] has as its target Dual specificity tyrosine-phosphorylation-regulated kinase 1A (Rattus norvegicus, UniProt Q63470). The class given is biochemical, Homo sapiens.
Experiment [11] in a line: THP-1 cell cytotoxicity, dose response, cytotoxicity control for non-replicating M. tuberculosis project (AID 489025). The class given is functional.
Experiment [12] deals with T4, Zinc finger protein mex-5 (Caenorhabditis elegans, UniProt Q9XUB2).
T4 sequence (Q9XUB2 whole entry): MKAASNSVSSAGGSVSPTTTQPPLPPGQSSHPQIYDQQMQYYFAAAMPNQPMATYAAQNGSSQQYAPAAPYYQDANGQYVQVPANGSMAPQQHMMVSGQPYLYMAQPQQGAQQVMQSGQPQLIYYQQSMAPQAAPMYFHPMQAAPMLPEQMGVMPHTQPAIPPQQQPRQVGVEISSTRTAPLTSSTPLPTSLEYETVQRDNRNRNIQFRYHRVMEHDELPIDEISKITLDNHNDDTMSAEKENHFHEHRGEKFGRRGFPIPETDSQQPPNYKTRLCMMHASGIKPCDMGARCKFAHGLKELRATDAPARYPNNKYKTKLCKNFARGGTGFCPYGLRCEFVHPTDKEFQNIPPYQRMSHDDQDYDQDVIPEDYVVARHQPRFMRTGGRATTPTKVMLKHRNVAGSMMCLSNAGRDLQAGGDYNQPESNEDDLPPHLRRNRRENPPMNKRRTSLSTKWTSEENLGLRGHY
Kind of experiment: potency of MEX-5 RNA-binding blockers – biochemical, C. elegans, fluorescence polarization, dose response (AID 1960). (Polarisation of emitted light reports the rotation of a fluorescent probe.)

A short description of experiment [13]: viability of HCT116 lacking mutant beta-catenin – cell-based, human colon tumor, dose response (AID 1045).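 Further: HCT116 colon tumor cells with beta catenin knocked out; cells exposed to compound for 60 hours.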 Type of experiment: functional.
The target of experiment [14] is T5, RNA-binding protein pos-1 (Caenorhabditis elegans, UniProt G5EF15).
T5 sequence (G5EF15 whole entry): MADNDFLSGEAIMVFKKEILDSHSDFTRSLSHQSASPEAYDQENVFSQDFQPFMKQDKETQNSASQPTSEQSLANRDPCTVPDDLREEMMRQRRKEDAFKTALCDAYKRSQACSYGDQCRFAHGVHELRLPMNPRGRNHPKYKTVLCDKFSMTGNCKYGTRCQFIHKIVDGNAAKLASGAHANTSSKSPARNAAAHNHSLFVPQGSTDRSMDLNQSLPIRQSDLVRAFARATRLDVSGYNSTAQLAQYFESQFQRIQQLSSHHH
The experiment is described as follows: disruptors of C. elegans POS-1 RNA interaction – biochemical, fluorescence polarization, dose response (AID 1964).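 Further: purified POS-1 fused to maltose binding protein made in E. coli; potency of compounds blocking POS-1 binding to fluorescent RNA.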

Experiment [15] can be described thus: viability of PTEN-deleted HCT116 cells – cell-based, HCT116 PTEN knockout, dose response (AID 1047).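 Further: HCT116 colon tumor cells with PTEN knocked out; cells exposed to compound for 60 hours before readout.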 Type of experiment: functional.
Experiment [16] relates to HEK293. Kind of experiment: cells. The note with it: Homo sapiens.
A short description of experiment [17]: fluconazole-exposed Candida albicans growth modulators – fluorescence, retest, confirmation (AID 2467). The class given is functional, cell-based.
Experiment [18] concerns HEK293. Kind of experiment: cells. Conditions: Homo sapiens. This is another data set of the same source.
Experiment [19] can be described thus: NIH-3T3 fibroblast cytotoxicity, dose response, cytotoxicity control, cell-based, fluorescence, Alamar Blue, secondary assay (AID 2327).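 Further: NIH-3T3 mouse fibroblasts cultured with fluconazole at 8 µg/mL.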 The class given is functional.

Where a name gives a salt, the structure may show the parent alone. Active and inactive are the calls of the source.

The term IC50 denotes the point on the concentration scale where inhibition reaches its midpoint. One may read the AC50 as the midpoint of the concentration-response curve, whichever way the signal moves. What is called EC50 is the concentration giving half of the maximal effect. The CC50 is the concentration giving 50% cytotoxicity.

Sequence of Beta-2 adrenergic receptor (P07550 whole entry): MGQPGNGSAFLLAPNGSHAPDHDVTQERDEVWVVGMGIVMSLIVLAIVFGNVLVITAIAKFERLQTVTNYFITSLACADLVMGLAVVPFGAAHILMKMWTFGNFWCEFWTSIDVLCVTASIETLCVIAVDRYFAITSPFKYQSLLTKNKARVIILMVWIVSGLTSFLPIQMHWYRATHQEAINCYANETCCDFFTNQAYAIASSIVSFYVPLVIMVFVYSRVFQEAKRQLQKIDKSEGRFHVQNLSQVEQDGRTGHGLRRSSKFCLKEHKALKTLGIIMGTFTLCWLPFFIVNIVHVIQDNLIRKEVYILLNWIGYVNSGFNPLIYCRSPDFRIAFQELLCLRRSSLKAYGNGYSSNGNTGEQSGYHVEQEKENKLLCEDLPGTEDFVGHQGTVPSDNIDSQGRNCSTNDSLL

With `CCCCN1C(=O)C(NC(C)=O)c2cc(C)ccc21` (centres undefined), the IC50 on Hexokinase HKDC1 and on Hexokinase-1 was > 80 µM (inactive) in each case.

For `COc1ccc(C(CC(=O)NCc2ccccc2)C(C)C)cc1` (centres undefined), the IC50 was 8.14 µM (active) at Cysteine protease ATG4B and 7.25 µM (active) at Phospholipase A2.

On to `CCCNC(=O)c1nnsc1S(=O)(=O)c1ccc(Cl)cc1`, for which the IC50 is 10.4 µM (active) at Fatty acid synthase [1], 12.7 µM (active) on Fatty acid synthase [7], 16.3 µM (inactive) at Beta Lactamase and 2.45 µM (active) in the experiment on CHO. Moreover, the AC50 in experiment [2] was 11.7 µM (active); in [4], 16.4 µM (active); in experiment [5], 2.88 µM (active); in experiment [6] it was 3.63 µM (active); in experiment [8], 0.602 µM (active). The EC50 in experiment [3] was 9.54 µM (active).

`Cc1ccc2oc3c(c(=O)c2c1)C(c1cccs1)N(CCCN(C)C)C3=O` (centres undefined): in the experiment on Escherichia coli, the AC50 is 27.1 µM (active).

As to `O=C(NC1CCCCC1)C(c1ccc2ncccc2c1)N(Cc1ccccc1)C(=O)c1ccc2c(c1)OCCO2` (centres undefined), the IC50 in the experiment on H9c2 was > 79 µM (inactive); in experiment [9] it was 10 µM (active).

With `Fc1ccc(CNC(=S)NCc2ccccc2)cc1`, the IC50 was 18.4 µM (active) on Cysteine protease ATG4B and 10.6 µM (active) at Phospholipase A2.

As to `O=c1cc(-c2ccccc2Cl)oc2c([N+](=O)[O-])c(O)cc(O)c12`, the AC50 in [10] was 1.22 µM (active). In experiment [11], the CC50 was > 40 µM (active).

Regarding `CCC(NC(C)C)C(O)c1ccc(O)c(O)c1` (centres undefined) [ISOETHARINE MESYLATE], the concentration for a half-maximal effect (EC50) in experiment [3] is 3.84 µM (active); in [12] it was 125 µM (active); in experiment [13], 20.7 µM (active); in experiment [14] it was > 300 µM (not active); in [15], 24.1 µM (active).

As to `O=C(c1ccco1)N1CCCC(c2nc(O)c3nnn(Cc4ccc(F)cc4)c3n2)C1` (centres undefined), in the experiment on Escherichia coli, the AC50 was 42.9 µM (active).

As for `O=C(Oc1c(CN2CCOCC2)cc(Cl)c2cccnc12)c1ccccc1Cl`, the EC50 is > 59.6 µM (inactive) in the experiment with HEK293 [16], 2.86 µM (active) in experiment [17], > 59.6 µM (inactive) in the experiment on HEK293 [18] and > 160 µM (inactive) in experiment [19]. Also, the AC50 was 7.37 µM (active) in experiment [4], 9.15 µM (active) in experiment [5] and 4.59 µM (active) in [6].

The values are drawn from ChEMBL document CHEMBL1201862, “PubChem BioAssay data set” (2004).
